Experimental findings from ChEMBL document CHEMBL3832050, “DailyMed|setid=da574350-be6b-49f3-b2ef-64da06af9b9d | PAMDRONATE DISODIUM - pamodronate disodium injection, solution|GENERAMEDIX, INC” are described below.

For data set [1], the system named is Homo sapiens. Description: (§1) Mean pharmacokinetic parameters for Pamidronate after intravenous infusion of 30, 60 and 90 mg of Pamidronate disodium for 4 hours and 90 mg for 24 hours in cancer patients, 6 in each group. More on the design: dose 90 mg, dose 30 mg, dose 60 mg, route iv. The data set is classed as ADME, organism-based. Particulars: in vivo, iv, dosed compound id 8, dosed compound name PAMIDRONATE DISODIUM, gender male and female, regimen Single dose; for Excretion: tissue Urine.

Data set [2] can be described thus: as §1. The format is ADME, organism-based. More on the design: dose 90 mg, dose 30 mg, dose 60 mg, route iv. Particulars: human, in vivo, dosed compound id 8, dosed compound name PAMIDRONATE DISODIUM, gender male and female, regimen Single dose, route iv, study dosing duration 4 hours.
[3] abbreviates: dose 60 mg, study dosing duration 4 hours, tissue Plasma.
The mark [4] stands for this setting: dose 90 mg, study dosing duration 4 hours, tissue Plasma.
The mark [5] stands for this setting: dose 90 mg, study dosing duration 24 hours, tissue Plasma.

What is called Cmax is the maximum level reached in the sampled fluid or tissue. By clearance is commonly meant a measure of how efficiently the substance is removed, as volume per time. A lower clearance goes with inefficient removal. As for `NCCC(O)(P(=O)([O-])O)P(=O)([O-])O.[Na+].[Na+]`, the Excretion stood at 47.4% in data set [1] (at 60 mg, study dosing duration 4 hours); 45.3% in data set [1] (at 90 mg, study dosing duration 4 hours); 47.5% in data set [1] (at 90 mg, study dosing duration 24 hours). For the same molecule, the CL in data set [1] (setting [3]) was 88 mL/min; in data set [1] (setting [4]) it was 103 mL/min; in data set [1] (setting [5]), 101 mL/min. For the same molecule, the CL_renal in data set [1] (setting [3]) is listed as 42 mL/min; in data set [1] (setting [4]), 44 mL/min; in data set [1] (setting [5]), 52 mL/min. In data set [1] (study dosing duration 24 hours, tissue Plasma), the maximum concentration (Cmax) amounted to 1380 ng/mL. The dose excreted in data set [2] (iv, at 30 mg, tissue Urine, read-out: Excretion) was determined as 43.9%. For the same molecule, in data set [2] (dose 30 mg, tissue Plasma), the clearance came out at 136 mL/min. Moreover, the CL renal in data set [2] (dose 30 mg, tissue Plasma, read-out: CL_renal) was determined as 58 mL/min.
